Test [1] is described as follows: Inhibition of AII(50 nM) induced intracellular [Ca2+] increase in PLC-PRF cells. The note with it: Homo sapiens. In kind it is functional, cell-based.
The target in test [2] is T1, Type-1 angiotensin II receptor (Homo sapiens, UniProt P30556).
T1 sequence (P30556 whole entry): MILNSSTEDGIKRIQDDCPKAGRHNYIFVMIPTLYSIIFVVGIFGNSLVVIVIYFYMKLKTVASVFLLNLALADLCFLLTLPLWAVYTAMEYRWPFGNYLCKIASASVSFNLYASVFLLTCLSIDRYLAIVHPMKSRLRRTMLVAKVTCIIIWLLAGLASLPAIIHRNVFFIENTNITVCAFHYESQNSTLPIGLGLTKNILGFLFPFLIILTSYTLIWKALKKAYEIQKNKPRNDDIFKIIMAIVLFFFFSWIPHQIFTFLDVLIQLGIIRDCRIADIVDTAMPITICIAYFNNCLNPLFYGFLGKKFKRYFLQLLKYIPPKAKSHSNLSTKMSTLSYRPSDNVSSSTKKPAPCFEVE
In words: In vitro binding affinity towards Angiotensin II receptor, type 1 of human hepatoma cell line PLC-PRF-5.

Take `CCCCN1C(=O)C2(CCCC2)CC(=O)N1Cc1ccc(-c2ccccc2-c2nnn[nH]2)cc1`: the half-inhibitory concentration (IC50) in test [1] stood at 102 nM. The compound also gave a Ki in test [2] of 80 nM. With `CCCCN1C(=O)C2(CCCC2)C(=O)N1Cc1ccc(-c2ccccc2-c2nn[nH]n2)cc1`, half-maximal inhibition in test [1] (IC50) was put at 28 nM. With `CCCCN1C(=O)CC2(CCCC2)C(=O)N1Cc1ccc(-c2ccccc2-c2nn[nH]n2)cc1`, half-maximal inhibition in test [1] (IC50) was put at 9 nM. In test [2], this compound had a Ki of 14 nM. The compound `CCCCC1=NC2(CCCC2)C(=O)N1Cc1ccc(-c2ccccc2-c2nnn[nH]2)cc1` [IRBESARTAN] yielded an IC50 in test [1] of 4 nM.

For the origin of these results see ChEMBL document CHEMBL1135977, “Comparison of 3D structures and AT(1) binding properties of pyrazolidine-3,5-diones and tetrahydropyridazine-3,6-diones with parent antihypertensive drug irbesartan” (J Med Chem, 2002).
